This assay concerns the target T1, human P2X3 receptor (Homo sapiens, UniProt P56373).
T1 construct: expressed in transfected cells; host or cells: CHO-K1
T1 sequence (P56373 1-397): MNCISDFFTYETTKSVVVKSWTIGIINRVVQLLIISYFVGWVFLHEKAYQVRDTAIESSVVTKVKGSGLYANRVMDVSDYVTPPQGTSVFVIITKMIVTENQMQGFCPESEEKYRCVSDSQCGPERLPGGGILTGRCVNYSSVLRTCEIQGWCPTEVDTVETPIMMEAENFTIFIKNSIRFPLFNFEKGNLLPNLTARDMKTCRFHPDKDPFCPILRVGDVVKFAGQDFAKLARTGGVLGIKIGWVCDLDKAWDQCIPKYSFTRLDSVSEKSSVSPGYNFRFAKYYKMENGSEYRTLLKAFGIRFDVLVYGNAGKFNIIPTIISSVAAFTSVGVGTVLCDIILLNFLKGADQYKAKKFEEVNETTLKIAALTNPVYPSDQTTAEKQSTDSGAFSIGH
As to the kind of experiment: Calcium luminescence (photoprotein) assay in CHO-K1 cells co-expressing human P2X3 receptor, α,β-Met-ATP stimulation, FLEXSTATION readout. The format is cell-based. Particulars: human P2X3 receptor antagonist activity, CHO-K1 cells, α,β-Met-ATP, read-out: h-P2X3 IC50. A digest of the protocol:
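CHO-K1 cells co-expressing human P2X3 and a Ca2+-sensitive photoprotein, loaded with coelenterazine in Tyrode's buffer (pH 7.4) for 4 h at 37 °C. Compounds injected 4 min before α,β-Met-ATP stimulation; luminescence recorded, IC50 and pseudo-Hill slope from nonlinear regression of inhibition curves.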

Where two headings read alike, the source gives them in different places.

The source of these data is patent publication US11999732B2, “P2X3 receptor antagonists” (RECORDATI INDUSTRIA CHIMICA E FARMACEUTICA SPA, priority 2018, dated 2024).

What is called IC50 is the concentration needed to halve the response being measured.

Regarding `CCC1CN2C(=O)N(Cc3ccc(Cl)cc3)c3cc(N4CCOCC4)cnc3C2=N1` (centres unmarked) [Example 50, 6-(4-chlorobenzyl)-2-ethyl-8-(morpholin-4-y1)-2,6-dihydroimidazo[1,2-c]pyrido[2,3-e]pyrimidin-5(3H)-one], the 50% inhibitory concentration (IC50) (Table 6) turned out to be 0.28 µM.

As to `COc1ccc(CN2C(=O)N3CC(C(C)C)N=C3c3ncc(N4CCC(N(C)C)CC4)cc32)cc1` (centres unmarked) [Example 21, 8-[4-(dimethylamino)piperidin-1-yl]-6-(4-methoxybenzyl)-2-(propan-2-yl)-2,6-dihydroimidazo[1,2-c]pyrido[2,3-e]pyrimidin-5(3H)-one], under “Table 6”, the IC50 was determined as 7.19 µM.

For `O=C1N(Cc2ccc(Cl)cc2)c2cc(N3CCOCC3)cnc2C2=NCC3(CCOCC3)N12` [Example 41, 6-(4-chlorobenzyl)-8-(morpholin-4-yl)-2,2′,3′,5′,6,6′-hexahydro-5h-spiro[imidazo[1,2-c]pyrido[2,3-e]pyrimidine-3,4′-pyran]-5-one], the IC50 (Table 6) is 3.32 µM.

As to `COc1ccc(Cn2c(=O)n3c(COC4CCOCC4)nnc3c3ncc(N4CCOCC4)cc32)cc1` [Example 98, 6-(4-methoxybenzyl)-8-(morpholin-4-yl)-3-[(tetrahydro-2H-pyran-4-yloxy)methyl]pyrido[2,3-e][1,2,4]triazolo[4,3-c]pyrimidin-5(6H)-one], under “Table 7”, the IC50 was 0.897 µM.

In the case of `CCn1nccc1-c1nnc2c3ncc(N4CCOCC4)cc3n(Cc3ccc(Cl)cc3)c(=O)n12` [Example 107, 6-(4-chlorobenzyl)-3-(1-ethyl-1h-pyrazol-5-yl)-8-(morpholin-4-yl)pyrido[2,3-e][1,2,4]triazolo[4,3-c]pyrimidin-5(6H)-one], the IC50 (Table 7) is 1.32 µM.
